This is an account of results in patent US20220241207A1, “EXTENDED-RELEASE SOLID ORAL DOSAGE FORM COMPRISING VITAMIN B12 AND A VITAMIN B12 DEPLETING DRUG” (DSM IP ASSETS B.V., priority 2019, published 2022).

How the values of the data set were obtained:
The solubilization medium was: • SIF (simulated intestinal fluid, pH=6.8, prepared according to Ph. Eur.)
The dissolution medium was heated to 37° C. and the analyses were performed at this temperature. During the analyses, the salts were added in access to the solubilization media and left to mix for 24 h. Afterwards, the solutions were filtered, and the precipitates were investigated using ATR-IR analysis to confirm the presence of the starting material (e.g. respective Ca salt). Attenuated total reflection (ATR) is a sampling technique used in conjunction with infrared spectroscopy which enables samples to be examined directly in the solid or liquid state without further preparation. The filtered solutions were analysed for Ca^2+ ions content.

Regarding “dicalciumphosphat anhydrous [dicalcium phosphate anhydrous]”, the “Ca^2+ ions average” value was found to be 0.028 mg/mL. Under “pH 6.8”, this substance gave a solubility average of 0.09 mg/mL.
